Experimental data as given in article PMC10574351, “First-Row Transition Metal Complexes Incorporating the 2-(2′-pyridyl)quinoxaline Ligand (pqx), as Potent Inflammatory Mediators: Cytotoxic Properties and Biological Activities against the Platelet-Activating Factor (PAF) and Thrombin” (Molecules, 2023).
“Also recorded” adds a separate entry of the source. Like-named read-outs stand apart in the source and are kept apart here.

Tests used:
[1] = tested on: PAF-induced aggregation in washed rabbit platelets (WRPs); details: cited from earlier work
[2] = tested on: thrombin-induced aggregation in washed rabbit platelets (WRPs); assay: Inhibition of thrombin-induced aggregation in washed rabbit platelets; type: cell-based; details: washed rabbit platelets, mean ± SD; for IC50: read-out: IC50 (μM) towards Thrombin in WRPs
Procedure: (§1) The biological experiments of PAF-induced platelet aggregation as well as the evaluation of the inhibitory effect of its synthetic compounds were performed according to thoroughly described protocols. The inhibitory effect of the starting materials (pqx = 2-(2′-pyridyl)quinoxaline, CrCl3 × 3H2O, MnCl2 × 4H2O, FeCl2 × 4H2O, CoCl2 × 6H2O, NiCl2 × 6H2O, CuCl2 × 2H2O, ZnCl2) and of the coordination compounds 1–7, towards PAF and thrombin related biological activities (aggregation experiments) in washed rabbit platelets (WRPs) was carried out according to previously described protocols. Briefly, in order to obtain the washed rabbit platelets (WRPs), platelet-rich plasma was washed on Ficoll–Paque cushions and adjusted to […] platelets/mL of Tyrode’s buffer, pH 7.2. The dilution of PAF was prepared using pyrogen-free 0.15 M NaCl containing 2.5 mg/mL of crystallized bovine serum albumin, required for dispersion of PAF. The compounds under investigation were firstly dissolved in the appropriate solvent that is: DMSO for pqx (0.010 M), H2O for CrCl3 × 3H2O (0.016 M), H2O for MnCl2 × 4H2O (0.004 M), DMSO-EtOH (4/1, v/v)) for FeCl2 × 4H2O (0.014 M), H2O for CoCl2 × 6H2O (0.010 M), H2O for NiCl2 × 6H2O (0.010 M), H2O for CuCl2 × 2H2O (0.008 M), H2O for ZnCl2 (0.013 M), DMSO for 1 (0.017 M), DMSO for 2 (0.010 M0, DMSO for 3 (0.004 M), DMSO for 4 (0.002 M), DMSO for 5 (0.003 M), DMSO-EtOH-H2O (25/1/1, v/v)) for 6 (0.006 M), DMSO for 7 (0.002 M) and aliquots of these solutions were then added in solutions (2.5 mg BSA/mL) of saline.
The experiment on the inhibitory effect of each compound of interest against the washed rabbit platelets (WRPs) aggregation was carried out as per the already described method. The platelets were from male New Zealand white rabbits (about 20), individually housed in stainless steel cages in an air-conditioned room (19 ± 1 °C, 55 ± 5% humidity on a 12/12 h artificial light/dark cycle). Blood samples were drawn from the main ear artery. Microliters of PAF in a final concentration of about 10^–10 M were added to the cuvette of the aggregometer, and the height of the platelet aggregation was monitored. The platelet aggregation induced by PAF, or thrombin was measured before (considered as 0% inhibition) and after the addition of various concentrations of the examined sample, creating a linear curve of percentage inhibition (ranging from 0 to 100%) versus different concentrations of the sample. From this curve, the concentration of the sample that inhibited 50% PAF-induced aggregation was calculated, and this value was defined as IC50 (Inhibitory concentration for 50% Inhibition). Dithiothreitol-insensitive PAF choline phosphotransferase, lyso-PAF:acetyl-CoA acetyltransferase and PAF-acetylhydrolase activity assays were performed on the homogenates of rabbit leukocytes while the activity of lipoprotein-associated phospholipase A2 was assessed on plasma as previously described. The experiments were performed in a model 400 vs. aggregometer of Chrono-Log (Havertown, PA, USA) coupled to a Chrono-Log recorder at 37 °C with constant stirring at 1200 rpm. The separation of platelets was performed with centrifugations in a 3L-R Heraeus Labofuge (Hvanau, Germany), a 400R Heraeus Labofuge and an RC-5B Sorvall (Newtown, CT, USA) refrigerated super speed centrifuge. Bovine serum albumin (BSA), PAF and analytical solvents for the biological assays were purchased from Sigma. Standard active thrombin was purchased from Sigma, St. Lewis, MO, USA. The measurements were performed in duplicates for each sample concentration in three different WRP preparations, in order to ensure reproducibility. All experiments were also followed by appropriate control tests of the solvent used (saline solution of BSA, DMSO aliquots in a saline solution of BSA-2.5 mg BSA/mL saline- or just in saline), in WRPs. […]

[3] = tested on: PAF-induced aggregation in washed rabbit platelets (WRPs); assay: Inhibition of PAF-induced aggregation in washed rabbit platelets; type: cell-based; details: washed rabbit platelets; mean ± SD; read-out: IC50 (μM) towards PAF in WRPs
Procedure: as §1, with “The inhibitory effect of the starting materials (pqx = 2-(2′-pyridyl)quinoxaline, CrCl3 × 3H2O, MnCl2 × 4H2O, FeCl2 × 4H2O, CoCl2 × 6H2O, NiCl2 × 6H2O, CuCl2 × 2H2O, ZnCl2) and of the coordination compounds 1–7, towards PAF and thrombin related biological activities (aggregation experiments) in washed rabbit platelets (WRPs) was carried out according to previously described protocols.” left out
The experiment on the inhibitory effect of each compound of interest against the washed rabbit platelets (WRPs) aggregation was carried out as per the already described method. The platelets were from male New Zealand white rabbits (about 20), individually housed in stainless steel cages in an air-conditioned room (19 ± 1 °C, 55 ± 5% humidity on a 12/12 h artificial light/dark cycle). Blood samples were drawn from the main ear artery. Microliters of PAF in a final concentration of about 10^–10 M were added to the cuvette of the aggregometer, and the height of the platelet aggregation was monitored. The platelet aggregation induced by PAF, or thrombin was measured before (considered as 0% inhibition) and after the addition of various concentrations of the examined sample, creating a linear curve of percentage inhibition (ranging from 0 to 100%) versus different concentrations of the sample. From this curve, the concentration of the sample that inhibited 50% PAF-induced aggregation was calculated, and this value was defined as IC50 (Inhibitory concentration for 50% Inhibition). Dithiothreitol-insensitive PAF choline phosphotransferase, lyso-PAF:acetyl-CoA acetyltransferase and PAF-acetylhydrolase activity assays were performed on the homogenates of rabbit leukocytes while the activity of lipoprotein-associated phospholipase A2 was assessed on plasma as previously described. The experiments were performed in a model 400 vs. aggregometer of Chrono-Log (Havertown, PA, USA) coupled to a Chrono-Log recorder at 37 °C with constant stirring at 1200 rpm. The separation of platelets was performed with centrifugations in a 3L-R Heraeus Labofuge (Hvanau, Germany), a 400R Heraeus Labofuge and an RC-5B Sorvall (Newtown, CT, USA) refrigerated super speed centrifuge. Bovine serum albumin (BSA), PAF and analytical solvents for the biological assays were purchased from Sigma. […] The measurements were performed in duplicates for each sample concentration in three different WRP preparations, in order to ensure reproducibility. All experiments were also followed by appropriate control tests of the solvent used (saline solution of BSA, DMSO aliquots in a saline solution of BSA-2.5 mg BSA/mL saline- or just in saline), in WRPs. In the aggregometer cuvette (250 to 500 μL) the overall amount of added DMSO, contained in the solution of the sample under study, is not higher than 2–3 μL. All results were expressed as mean ± standard deviation (SD). The t-test was employed to assess differences among the IC50 values of each metal complex against either the PAF- or thrombin-induced aggregation. Differences were statistically significant when the statistical p-value was smaller than 0.05.

[4] = tested on: HEK293T (human embryonic kidney cells); assay: MTT cell viability assay, HEK293T; type: cell-based; details: 48 h exposure, mean ± SD
Procedure: (§2) In this report, cell viability tests were conducted in HEK293T and HeLa cancer cells by means of the colorimetric 3-(4,5-dimethylthiazol-2-yl)-2,5-diphenyl tetrazolium bromide (MTT) assay after exposure for 48 h. A HeLa cancer cell line was selected since it is widely used in cytotoxicity studies. For all complexes, a 10 mM stock solution in DMSO (H2O for cisplatin) was prepared and diluted appropriately to reach the final concentration reported in the Materials and Methods. The non-cancerous HEK293T cell line was used for comparison. The IC50 values of the first-row metal complexes, the pqx ligand and cisplatin, presented herein were calculated using a dose-response model, which was obtained from sigmoidal fitting of dose-response curves.
(§3) The HEK293T cell line (immortalized human embryonic kidney cells) was obtained from the Biomedical Research Foundation Academy of Athens (BRFAA), Athens, Greece and the HeLa cell line (cervical cancer cells) was obtained from the National Centre For Scientific Research Demokritos (NCSR Demokritos), Athens, Greece.
(§4) Pqx metal complexes were diluted in stock solutions of 10 mM in dimethyl sulfoxide (DMSO). A similar concentration of cisplatin dissolved in H2O was used. HEK293T and HeLa cells were cultured in Dulbecco’s modified Eagle’s medium (DMEM) with high glucose (Biosera, Nuaille, France) supplemented with 10% fetal bovine serum at 37 °C and 5% CO2. Cells were seeded in sterile tissue culture 96-well plates (SPL Life Science, Pochon, Republic of Korea) at a density of 3000 cells per well. After 24 h, the medium was removed and replaced with fresh media containing various concentrations (0.01 μΜ, 0.1 μΜ, 1 μΜ, 10 μΜ, 25 μΜ, 40 μΜ, 55 μΜ, 70 μΜ, 85 μΜ and 100 μΜ) of the compounds to be tested and was further incubated for 48 h at 37 °C. Dimethyl sulfoxide (DMSO) was used as a vehicle at ≤1%. To measure cytotoxicity, a culture medium containing the compounds (or DMSO) was removed, and 100 μL of 0.5 mg/mL MTT reagent (Applichem, Darmstadt, Germany) diluted in DMEM was added to the cells for 3 h at 37 °C. After 3 h incubation in identical conditions, MTT was removed and 200 μL of DMSO was added. Absorbance values of formazan were measured at 540 nm using a BioTek Synergy H1 microplate reader (Agilent, Santa Clara, CA, USA). All compounds were tested in triplicate. The results were statistically analyzed using the nonlinear regression by GraphPad PRISM (Version 9).

[5] = tested on: HeLa cells (cervical cancer cells); assay: MTT cell viability assay, HeLa; type: cell-based, human; details: 48 h exposure, mean ± SD
Procedure: as §2, §3, §4

[6] = tested on: thrombin-induced aggregation in washed rabbit platelets (WRPs); details: cited from earlier work
[7] = known PAF antagonists quoted for comparison, read-out: IC50 against the PAF-induced aggregation in WRPs
[8] = earlier pqx complexes, ref [17],[25], read-out: IC50 against the PAF-induced aggregation

C[C@@H]1C(=O)O[C@H]2C[C@@]34[C@H]5C[C@@H](C(C)(C)C)[C@]36[C@@H](OC(=O)[C@@H]6O)O[C@@]4(C(=O)O5)[C@]21O [BN 52020]
IC50 [1, 7]: 3.6 µM

CC1C(=O)OC2C(O)C34C5CC(C(C)(C)C)C36C(OC(=O)C6O)OC4(C(=O)O5)C12O (stereo not shown) [BN 52021]
IC50 [1, 7]: 9.7 µM

O.O.O.O.O.O.[Cl-].[Cl-].[Co+2] [CoCl2 × 6H2O]
IC50 (μM) towards PAF in WRPs ([1]; washed rabbit platelets, ref [60]): negligible effects; also recorded: no inhibition ^1
IC50 (μM) towards Thrombin in WRPs [2]: no inhibition

[Cl][Cr]([Cl])[Cl] [CrCl3 × 6H2O, reference compound]
IC50 [2]: 611 ± 67 µM
IC50 [3]: 537 ± 59 µM

[Cl][Cu][Cl] [CuCl2 × 2H2O, reference compound]
IC50 [2]: 3.23 ± 0.39 µM
IC50 [3]: 22 ± 3 µM

[Cl][Fe][Cl] [FeCl2 × 4H2O, reference compound]
IC50 [2]: 13.8 ± 1.93 µM
IC50 [3]: 261 ± 37 µM

[Cl][Mn][Cl] [MnCl2 × 4H2O, reference compound]
IC50 [2]: 466 ± 47 µM
IC50 [3]: 302 ± 30 µM

[Cl][Ni][Cl] [NiCl2 × 6H2O, reference compound]
IC50 [2]: 4.9 ± 0.44 µM
IC50 [3]: 30 ± 2.7 µM

[Cl-].[Cl-].[Zn+2] [ZnCl2, reference compound]
IC50 [2]: 41.4 ± 3.7 µM
IC50 [3]: 30 ± 3 µM

N.N.[Cl][Pt][Cl] [cisplatin, reference compound]
IC50 ([1]; ref [25], read-out: IC50 against PAF): 0.55 µM
IC50 [4]: 4.44 ± 1.29 µM
IC50 [5]: 12.8 ± 1.48 µM

Cc1cncc(CN2CCC(=C3c4ccc(Cl)cc4CCc4cccnc43)CC2)c1 [rupatadine]
IC50 [1, 7]: 0.25 µM

[Rh(cod)(pqx)]Cl
IC50 [1, 8]: 0.015 µM

[Ru(dcbpyH2)2 (pqx))](NO3)2
IC50 [1, 8]: 0.18 µM
activity against thrombin ([6]; known Ru(II)-pqx complex, ref [17]): inactive

cis-[Ru(bpy)2(dcbpyH2)](PF6)2
IC50 ([6]; Ru(II) thrombin inhibitors, ref [30], read-out: IC50 against thrombin): 4.5 µM

mer-[Rh(pqx)Cl3(MeOH)]
IC50 [1, 8]: 0.125 µM
